Assay results: patent publication US8410165B2, “Aldehyde conjugated flavonoid preparations” (Agency for Science, Technology and Research, priority 2005, dated 2013)

What was measured:
Assay type in all cases: biochemical
[1] = Diphenyl-picryl-hydrazyl (DPPH) scavenging activity; conditions: concentration needed to scavenge DPPH by 50%; EGCG moiety concentration for EGCG-containing samples, n = 3
Experimental: Diphenyl-picryl-hydrazyl scavenging activity: Different amounts of a sample were mixed with the chemically stable free radical 1,1-diphenyl-2-picryl-hydrazyl (DPPH) solution and absorbance at 519 nm was continuously recorded for 30 min at 25° C. using a UV-visible spectrophotometer (JASCO V-510 UV/VIS/NIR spectrometer, Japan). All analyses were run in triplicate and the results were averaged.
Diphenyl-picryl-hydrazyl scavenging activity and Superoxide anion scavenging activity: The 1,1-diphenyl-2-picryl-hydrazyl radical (DPPH) assay, which measures hydrogen atom donating activity, provides an evaluation of antioxidant activity due to free radical scavenging. DPPH, a purple-coloured stable free radical, is reduced into the yellow-coloured diphenylpicry hydrazine, as the radical is scavenged by antioxidants through donation of hydrogen. […] The DPPH scavenging activity of samples was expressed by IC50 (the concentration needed to scavenge DPPH by 50%), as shown in Table 4. […] These activities were also much higher than those of commercial antioxidants, vitamin C and dibutylhydroxytoluen (BHT).

[2] = Superoxide anion scavenging activity (xanthine/XO, NBT reduction method); conditions: concentration needed to scavenge superoxide anion by 50%; EGCG moiety concentration for EGCG-containing samples, n = 3; read-out: Superoxide radical scavenging activity IC50
Experimental: Superoxide anion scavenging activity: Superoxide anion was generated using xanthine and xanthine oxidase (XO), and measured by the nitroblue tetrazolium (NBT) reduction method. A test sample was mixed in a buffer solution (pH 7.0) containing xanthine and NBT at 25° C. Measurement began with the addition of XO. […] All analyses were run in triplicate and the results were averaged. Superoxide scavenging activity was calculated according to the following formula: […] A mixture of xanthine and XO generates superoxide anion, which reduces nitroblue tetrazolium (NBT) to give the blue chromogen formazan and increases UV absorbance at 560 nm. Compounds capable of scavenging superoxide anion, such as superoxide dismutase (SOD), inhibit NBT reduction. […] Since compounds capable of scavenging superoxide anion can also affect NBT reduction, samples were investigated for their effects on these processes. […] Evaluation of scavenging activity against DPPH and superoxide anion provided direct evidence of the free radical scavenging potential of those compounds.

Xanthine oxidase (XO) = molecular target: T1, Xanthine oxidase (XO) (Bos taurus, UniProt P80457); test: Xanthine oxidase inhibitory activity (uric acid formation at 295 nm); conditions: for XO inhibition activity: 10 μM of samples
T1 construct: purchased Sigma-Aldrich
Experimental: Xanthine oxidase inhibitory activity: The activity of XO was measured spectrophotometrically by monitoring the formation of uric acid at 295 nm for 30 min using a UV-visible spectrometer. The assay was carried out under the same conditions as the superoxide anion assay, and the percentage activity was calculated.

Urokinase (uPA) = Urokinase (uPA) (Homo sapiens, UniProt P00749); test: uPA inhibitory activity (SPECTROZYME UK); conditions: over a range of tested concentrations, EGCG-unit concentration (FIG. 8)
Experimental: uPA inhibitory activity: Various amounts of a sample were mixed with uPA in a buffer solution, and incubated for 15 min at 37° C. The mixture solution was added with SPECTROZYME™ and absorbance at 405 nm was recorded for 10 min using a microplate reader.

[3] = molecular target: T2, Catalase from bovine liver (Bos taurus, UniProt P00432); test: Catalase activity upon complexation with OEGCG and recovery with Triton X-100
T2 construct: Catalase from bovine liver, Sigma Chemical; purchased Sigma Chemical; host or cells: bovine liver
T2 sequence (P00432 2-527 limits assumed): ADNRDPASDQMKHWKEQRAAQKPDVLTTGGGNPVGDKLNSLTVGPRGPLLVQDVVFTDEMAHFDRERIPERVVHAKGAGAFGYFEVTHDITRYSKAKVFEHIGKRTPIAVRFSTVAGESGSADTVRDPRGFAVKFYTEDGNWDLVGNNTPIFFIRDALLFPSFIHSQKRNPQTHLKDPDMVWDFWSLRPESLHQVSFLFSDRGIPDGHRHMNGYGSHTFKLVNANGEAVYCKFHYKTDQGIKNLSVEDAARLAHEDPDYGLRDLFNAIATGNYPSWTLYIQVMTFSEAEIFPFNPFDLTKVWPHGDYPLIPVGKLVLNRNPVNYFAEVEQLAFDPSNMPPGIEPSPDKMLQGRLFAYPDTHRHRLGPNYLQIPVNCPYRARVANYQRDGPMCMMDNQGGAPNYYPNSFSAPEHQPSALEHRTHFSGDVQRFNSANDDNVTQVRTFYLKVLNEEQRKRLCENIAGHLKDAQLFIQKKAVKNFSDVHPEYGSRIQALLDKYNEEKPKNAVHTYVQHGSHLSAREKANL
Experimental: Catalase from bovine liver, Sigma Chemical. Catalase activity was measured by the disappearance of H2O2, followed at 240 nm in a UV-Vis spectrophotometer over a period of 200s. […] The reaction was started by adding 0.507 M H2O2 and mixing for 25 s.
(§1) Activity was measured according to the specified method for each protein.
(§2) Activity for all proteins is calculated with the following equation:
(§3) [formula] where ΔAbssample is the change in absorbance over time with the test compound and ΔAbscontrol is the change in absorbance over time without the test compound.

[4] = ABTS radical scavenging activity; conditions: dissociation (FIG. 27)
Experimental: Radical scavenging activity: ABTS^.+ was prepared by mixing a 7 mM ABTS stock solution with 2.45 mM potassium persulfate ((1/1, v/v). The decolorization reaction was initiated by adding ABTS^.+ to samples in a phosphate buffer and immediately measured at 734 nm using a UV-Vis spectrophotometer (Hitachi, Japan).

[5] = molecular target: T3, α-Amylase from Apergillus oryzae (Aspergillus oryzae, UniProt P0C1B3); test: α-Amylase activity upon complexation with OEGCG and recovery with Triton X-100
T3 construct: α-Amylase from Apergillus oryzae, Fluka; purchased Fluka; host or cells: Aspergillus oryzae
Experimental: α-Amylase from Apergillus oryzae, Fluka. Amylase activity was assayed with an activity kit from Molecular Probes (E-11954) using a fluorescence spectrophotometer with excitation wavelength at 505 nm and emission wavelength at 512 nm. […] Fluorescence was monitored over a period of 3 minutes.
as §1, §2, §3

[6] = molecular target: T4, Xanthine Oxidase from buttermilk (Bos taurus, UniProt P80457); test: Xanthine oxidase activity upon complexation with OEGCG and recovery with Triton X-100; conditions: highest OEGCG concentration
T4 construct: Xanthine Oxidase from buttermilk, Wako Chemical; purchased Wako Chemical; host or cells: buttermilk
Experimental: XO activity was measured by determining uric acid production in a UV-vis spectrophotometer at 295 nm. The increase in absorbance due to the conversion of xanthine to uric acid was followed for 3 minutes. […] Activity was measured according to the specified method for each protein. Activity for all proteins is calculated with the following equation: [formula] where ΔAbssample is the change in absorbance over time with the test compound and ΔAbscontrol is the change in absorbance over time without the test compound.

Lysozyme from egg white = molecular target: T5, Lysozyme from egg white (Gallus gallus, UniProt P00698); test: Lysozyme activity upon complexation with OEGCG and recovery with Triton X-100
T5 construct: Lysozyme from egg white, Sigma Chemical; purchased Sigma Chemical; host or cells: egg white
Experimental: Lysozyme from egg white, Sigma Chemical. Activity of lysozyme was determined spectrophotometically at 450 nm by the decrease in turbidity over time due to the cleavage of glucosidic linkages of Micrococcus lysodeikticus. […] To start the reaction, 0.25 mg/mL of Micrococcus lysodeikticus was added to the solution.
as §1, §2, §3

[7] = addition of TX-100 after complexation with OEGCG

T1 sequence (P80457 2-1332 limits assumed): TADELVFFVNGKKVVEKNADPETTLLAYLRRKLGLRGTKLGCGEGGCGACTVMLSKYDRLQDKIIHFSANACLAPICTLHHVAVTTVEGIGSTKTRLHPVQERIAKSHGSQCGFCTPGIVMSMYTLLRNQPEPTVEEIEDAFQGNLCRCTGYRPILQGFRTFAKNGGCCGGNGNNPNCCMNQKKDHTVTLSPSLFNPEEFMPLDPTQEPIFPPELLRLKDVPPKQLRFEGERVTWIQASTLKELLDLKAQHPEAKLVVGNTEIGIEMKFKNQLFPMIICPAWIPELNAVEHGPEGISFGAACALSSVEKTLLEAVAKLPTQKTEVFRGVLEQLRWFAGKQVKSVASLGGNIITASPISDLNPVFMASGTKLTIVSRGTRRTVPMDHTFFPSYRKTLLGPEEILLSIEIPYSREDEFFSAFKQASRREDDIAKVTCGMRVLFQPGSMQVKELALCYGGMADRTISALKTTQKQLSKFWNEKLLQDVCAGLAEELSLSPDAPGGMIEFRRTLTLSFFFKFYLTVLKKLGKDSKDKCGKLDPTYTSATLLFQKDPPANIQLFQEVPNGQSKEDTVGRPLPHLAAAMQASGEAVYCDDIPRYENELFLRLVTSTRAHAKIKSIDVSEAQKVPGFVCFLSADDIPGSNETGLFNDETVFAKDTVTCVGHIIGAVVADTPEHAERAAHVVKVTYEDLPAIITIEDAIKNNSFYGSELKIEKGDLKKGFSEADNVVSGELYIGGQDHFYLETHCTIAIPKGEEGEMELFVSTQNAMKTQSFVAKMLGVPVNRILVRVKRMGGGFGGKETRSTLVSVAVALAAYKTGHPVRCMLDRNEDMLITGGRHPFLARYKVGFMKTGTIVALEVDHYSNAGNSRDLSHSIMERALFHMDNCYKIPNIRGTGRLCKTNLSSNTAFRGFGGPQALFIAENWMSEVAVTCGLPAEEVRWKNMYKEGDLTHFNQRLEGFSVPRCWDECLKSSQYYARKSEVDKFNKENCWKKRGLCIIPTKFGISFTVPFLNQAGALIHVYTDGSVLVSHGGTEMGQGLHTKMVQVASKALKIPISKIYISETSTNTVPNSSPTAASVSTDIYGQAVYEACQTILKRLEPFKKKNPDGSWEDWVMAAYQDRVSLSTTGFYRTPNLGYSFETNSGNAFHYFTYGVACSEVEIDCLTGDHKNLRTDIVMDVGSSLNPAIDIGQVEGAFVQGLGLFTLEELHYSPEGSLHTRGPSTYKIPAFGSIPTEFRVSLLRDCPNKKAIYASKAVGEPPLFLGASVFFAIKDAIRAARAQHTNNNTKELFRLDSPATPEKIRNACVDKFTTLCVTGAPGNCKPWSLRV
T5 sequence (P00698 19-147): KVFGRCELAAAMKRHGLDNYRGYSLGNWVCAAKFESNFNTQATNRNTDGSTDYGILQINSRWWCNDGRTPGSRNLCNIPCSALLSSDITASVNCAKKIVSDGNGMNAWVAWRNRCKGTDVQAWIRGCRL
T4 sequence (P80457 whole entry): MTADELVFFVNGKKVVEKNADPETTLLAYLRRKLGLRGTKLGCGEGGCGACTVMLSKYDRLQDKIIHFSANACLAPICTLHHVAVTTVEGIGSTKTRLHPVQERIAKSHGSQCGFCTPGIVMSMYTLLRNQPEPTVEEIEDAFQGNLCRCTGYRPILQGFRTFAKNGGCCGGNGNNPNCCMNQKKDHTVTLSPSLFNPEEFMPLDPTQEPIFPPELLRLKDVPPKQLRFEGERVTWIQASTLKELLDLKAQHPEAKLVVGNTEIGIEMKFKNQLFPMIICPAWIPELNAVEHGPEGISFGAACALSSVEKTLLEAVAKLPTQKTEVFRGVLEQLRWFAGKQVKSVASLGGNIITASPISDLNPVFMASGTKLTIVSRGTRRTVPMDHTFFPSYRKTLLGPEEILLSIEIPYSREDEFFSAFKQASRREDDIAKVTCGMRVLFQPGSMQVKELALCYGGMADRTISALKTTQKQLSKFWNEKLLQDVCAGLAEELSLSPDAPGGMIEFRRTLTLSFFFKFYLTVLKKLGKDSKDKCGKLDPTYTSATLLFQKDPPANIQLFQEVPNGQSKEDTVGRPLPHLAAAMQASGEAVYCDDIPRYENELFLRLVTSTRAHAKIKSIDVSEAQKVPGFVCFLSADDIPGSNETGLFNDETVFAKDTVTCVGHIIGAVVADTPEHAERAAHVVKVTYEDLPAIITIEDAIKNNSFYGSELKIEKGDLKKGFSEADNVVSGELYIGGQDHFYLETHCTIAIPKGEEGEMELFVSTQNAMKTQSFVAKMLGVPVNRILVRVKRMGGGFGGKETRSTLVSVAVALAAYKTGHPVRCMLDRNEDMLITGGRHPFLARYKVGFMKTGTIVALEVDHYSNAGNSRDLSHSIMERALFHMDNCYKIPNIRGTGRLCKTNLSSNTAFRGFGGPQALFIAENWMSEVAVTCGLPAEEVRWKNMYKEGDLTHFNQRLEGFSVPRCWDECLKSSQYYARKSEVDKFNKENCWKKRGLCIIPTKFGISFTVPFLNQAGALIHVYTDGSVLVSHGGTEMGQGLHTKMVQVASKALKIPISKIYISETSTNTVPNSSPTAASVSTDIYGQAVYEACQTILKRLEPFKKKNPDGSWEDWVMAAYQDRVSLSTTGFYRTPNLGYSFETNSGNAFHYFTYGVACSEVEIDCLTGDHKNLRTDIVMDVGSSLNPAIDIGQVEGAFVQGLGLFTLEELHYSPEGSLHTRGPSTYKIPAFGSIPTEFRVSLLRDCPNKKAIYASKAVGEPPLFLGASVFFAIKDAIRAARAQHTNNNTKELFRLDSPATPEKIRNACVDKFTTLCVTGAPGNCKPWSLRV

Molecule	IC50 [1]	IC50 [2]	uPA inhibition activity (Urokinase (uPA))	XO inhibition activity (Xanthine oxidase (XO))	also measured
Cc1cc(C(C)(C)C)c(O)c(C(C)(C)C)c1 [BHT, dibutylhydroxytoluen, reference compound]	> 250 µM	> 250000 nM			
O=C1O[C@H]([C@@H](O)CO)C(O)=C1O [Vitamin C, reference compound]	44.7 ± 0.4 µM	30300 ± 300 nM			
Oc1ncnc2[nH]ncc12 [allopurinol, reference compound]					inhibition at 10 µM (Xanthine oxidase (XO); read-out: XO inhibition activity): 22.6%
(−)-Epigallocatechin gallate [EGCG, reference compound]	7.3 ± 0.6 µM	2900 ± 300 nM	very low uPA inhibition activity	1.2%	XO inhibition (Xanthine oxidase (XO); over the range of concentrations tested): less than 5%
PEG-epigallocatechin gallate conjugate [PEG-EGCG]	6.2 ± 0.3 µM	900 ± 100 nM	higher inhibition activities	30.7%	
PEG-oligomeric epigallocatechin gallate [PEG-OEGCG]	3.8 ± 0.8 µM	400 ± 100 nM	higher inhibition activities	100%	
oligomeric epigallocatechin gallate [OEGCG]	4.9 ± 0.5 µM	1100 ± 200 nM	higher inhibition activities	89.3%	further decrease of catalase activity ([3]; five fold increase in OEGCG concentration beyond OEGCG to protein ratio of 1): about 6%; inhibition of catalase ([3]; highest OEGCG to protein ratio): 30%; ABTS radical scavenging activity upon complexation with proteins and dissociation [4]: suppressed by complexation with proteins was restored upon dissociation; maximum inhibition of α-amylase [5]: about 94%; initial α-amylase activity inhibition ([5]; OEGCG below a ratio of one): 70%; α-amylase activity restored, % of the initial protein activity [5, 7]: approximately 100%; decrease in α-amylase activity ([5]; five fold increase in OEGCG concentration from a ratio of 1 to 5): 20%; suppression of total XO activity [6]: 75%; inhibition of lysozyme (Lysozyme from egg white; above an OEGCG ratio of 2): All activity was suppressed; lysozyme activity restored, % of the initial protein activity (Lysozyme from egg white; [7]): approximately 100%
